Measurements: US12479849B2, “EGFR inhibitors for the treatment of cancer” (Hoffmann-La Roche Inc., priority 2019, dated 2025)

What follows are compounds tested against T1, EGFR TMLRCS (Homo sapiens, UniProt P00533, C797S/L858R/T790M) (assay: HTRF Phospho EGFR TMLRCS Assay (Cellular)). Details: BaF3-TMLRCS cell line, 4 hours incubation, Phospho-EGFR HTRF readout.
T1 construct: host or cells: BaF3-TMLRCS (Ba/F3 cells, kept under puromycin selection)
Type: cell-based
Protocol: HTRF Phospho EGFR TMLRCS Assay (Cellular)
BaF3-TMLRCS cell line were obtained from Crownbio (San Diego, CA, USA). Cells were maintained at 37° C., 5% CO2 in RPMI ATCC (Gibco 31870)+2 mM Glutamine+0.5 μg/ml Puromycin supplemented with 10% fetal bovine serum (FBS) (Gibco).
Cells are transferred as above to Greiner Bio-One, Nr. 784-08 micro-titerplate at 20000 cells/well in 12.5 μl of growth medium/well after the plates had been pre-filled with 12.5 nl of DMSO solutions of the to be tested compounds (in dose response) or DMSO only. After spinning the plates at 300×g for 30 seconds the cells were incubated for 4 hours at 37 C, 5% CO2, 95% humidity. The cells were lysed by adding to the compound mix 4 μl/well of the supplemented lysis buffer (Cis-bio, Phospho-EGFR HTRF kit, 64EG1PEH), followed by incubation for 30 min at room temperature with shaking (400 rpm). The plates were then frozen and stored overnight at −80 C. On the next day and after thawing the plates, 4 μl of a mixture of anti-Phospho-EGFR Cryptate and of anti-Phospho-EGFR-d2 antibody solutions prepared in the supplied detection buffer was added to each well. The lidded plates were then incubated for 4 h at room temperature before reading the fluorescence emission at 616 and 665 nm using an Envision reader (Perkin Elmer). Data was analyzed in similar fashion as above using the normalized ratio of the 665 to 616 signals multiplied by 10000.
Work on CC(O)C1CCN(CCc2ccc(-c3cc(Cl)c4cn(C(C(=O)Nc5nccs5)c5ncn6c5C[C@@H](F)C6)nc4c3Cl)cc2)CC1 (mixture of isomers) [Example 60, rac-2-(4,7-Dichloro-6-(4-(2-(4-(1-hydroxyethyl)piperidin-1-yl)ethyl)phenyl)-2H-indazol-2-yl)-2-((R)-6-fluoro-6,7-dihydro-5H-pyrrolo[1,2-c]imidazol-1-yl)-N-(thiazol-2-yl)acetamide] yielded an IC50 of 9 nM. In the case of O=C(Nc1nccs1)C(c1ncn2c1C[C@@H](F)C2)n1cc2c(Cl)cc(-c3ccc(N4CC5(CCNCC5)C4)cc3)c(Cl)c2n1 (stereo partly drawn) [Example 69, 2-(6-(4-(2,7-Diazaspiro[3.5]nonan-2-yl)phenyl)-4,7-dichloro-2H-indazol-2-yl)-2-((R)-6-fluoro-6,7-dihydro-5H-pyrrolo[1,2-c]imidazol-1-yl)-N-(thiazol-2-yl)acetamide], the IC50 is reported as 4 nM. Compound O=C(Nc1nccs1)C(c1ncn2c1C[C@@H](F)C2)n1cc2c(Cl)cc(-c3ccc([C@@H]4CCN(C5CC(O)C5)C[C@H]4F)cc3)c(Cl)c2n1 (single isomer, unassigned) [Example 55] has an IC50 of 5 nM. In the case of O=C(Nc1nccs1)C(c1ncn2c1C[C@@H](F)C2)n1cc2c(Cl)cc(-c3ccc(OCCN4CCC(CO)CC4)cc3)c(Cl)c2n1 (mixture of isomers) [Example 68, rac-2-(4,7-Dichloro-6-(4-(2-(4-(hydroxymethyl)piperidin-1-yl)ethoxy)phenyl)-2H-indazol-2-yl)-2-((R)-6-fluoro-6,7-dihydro-5H-pyrrolo[1,2-c]imidazol-1-yl)-N-(thiazol-2-yl)acetamide], the IC50 is reported as 4 nM. Compound COCCN1CCC(c2ccc(-c3cc(Cl)c4cn(C(C(=O)Nc5nccs5)c5ncn6c5C[C@@H](F)C6)nc4c3Cl)cc2)CC1 (stereo partly drawn) [Example 45, 2-(4,7-Dichloro-6-(4-(1-(2-methoxyethyl)piperidin-4-yl)phenyl)-2H-indazol-2-yl)-2-((R)-6-fluoro-6,7-dihydro-5H-pyrrolo[1,2-c]imidazol-1-yl)-N-(thiazol-2-yl)acetamide] has an IC50 of 4 nM. Compound O=C(Nc1nccs1)C(c1ncn2c1C[C@@H](F)C2)n1cc2c(Cl)cc(-c3ccc(N4CCN(CCO)CC4)cc3)c(Cl)c2n1 (mixture of isomers) [Example 61, rac-2-(4,7-Dichloro-6-(4-(4-(2-hydroxyethyl)piperazin-1-yl)phenyl)-2H-indazol-2-yl)-2-((R)-6-fluoro-6,7-dihydro-5H-pyrrolo[1,2-c]imidazol-1-yl)-N-(thiazol-2-yl)acetamide] has an IC50 of 3 nM. With CCN1CCC(c2ccc(-c3cc(Cl)c4cn(C(C(=O)Nc5nccs5)c5ncn6c5CCC6)nc4c3Cl)cc2)CC1 (stereo not drawn) [Example 104, 2-(4,7-Dichloro-6-(4-(1-ethylpiperidin-4-yl)phenyl)-2H-indazol-2-yl)-2-(6,7-dihydro-5H-pyrrolo[1,2-c]imidazol-1-yl)-N-(thiazol-2-yl)acetamide] the IC50 was 12 nM. With O=C(Nc1nccs1)C(c1ncn2c1C[C@@H](F)C2)n1cc2c(Cl)cc(-c3ccc(N4CCC(CN5CCC(O)C5)CC4)cc3)c(Cl)c2n1 (mixture of isomers) [Example 74, rac-2-(4,7-Dichloro-6-(4-(4-((3-hydroxypyrrolidin-1-yl)methyl)piperidin-1-yl)phenyl)-2H-indazol-2-yl)-2-((R)-6-fluoro-6,7-dihydro-5H-pyrrolo[1,2-c]imidazol-1-yl)-N-(thiazol-2-yl)acetamide] the IC50 was 12 nM. With “2-(4,7-Dichloro-6-(4-((3S,4S)-3-fluoro-1-(2-methoxyethyl)piperidin-4-yl)phenyl)-2H-indazol-2-yl)-2-((R)-6-fluoro-6,7-dihydro-5H-pyrrolo[1,2-c]imidazol-1-yl)-N-(thiazol-2-yl)acetamide OR 2-(4,7-dichloro-6-(4-((3R,4R)-3-fluoro-1-(2-methoxyethyl)piperidin-4-yl)phenyl)-2H-indazol-2-yl)-2-((R)-6-fluoro-6,7-dihydro-5H-pyrrolo[1,2-c]imidazol-1-yl)-N-(thiazol-2-yl)acetamide [Example 56]” the IC50 was 13 nM. Work on CCN1CCN(c2ccc(-c3cc(C)c4cn(C(C(=O)Nc5nccs5)c5ncn6c5C[C@@H](F)C6)nc4c3C)cc2)CC1 (stereo partly drawn) [Example 121, 2-(6-(4-(4-Ethylpiperazin-1-yl)phenyl)-4,7-dimethyl-2H-indazol-2-yl)-2-((R)-6-fluoro-6,7-dihydro-5H-pyrrolo[1,2-c]imidazol-1-yl)-N-(thiazol-2-yl)acetamide] yielded an IC50 of 8 nM. CCN1CCC(c2ccc(-c3cc(C)c4cn(C(C(=O)Nc5nccs5)c5ncn6c5C[C@@H](F)C6)nc4c3C)cc2)CC1 (stereo partly drawn) [Example 120, 2-(6-(4-(1-Ethylpiperidin-4-yl)phenyl)-4,7-dimethyl-2H-indazol-2-yl)-2-((R)-6-fluoro-6,7-dihydro-5H-pyrrolo[1,2-c]imidazol-1-yl)-N-(thiazol-2-yl)acetamide] showed an IC50 of 15 nM. Work on CCN1CCC(c2ccc(-c3cc(Cl)c4cn(C(C(=O)Nc5nccs5)c5ncn6c5C[C@@H](F)C6)nc4c3Cl)cc2)CC1 (mixture of isomers) [Example 31, 2-[4,7-Dichloro-6-[4-(1-ethylpiperidin-4-yl)phenyl]indazol-2-yl]-2-[rac-(6R)-6-fluoro-6,7-dihydro-5H-pyrrolo[1,2-c]imidazol-1-yl]-N-(1,3-thiazol-2-yl)acetamide] yielded an IC50 of 10 nM. CCN1CC[C@H](c2ccc(-c3cc(Cl)c4cn(C(C(=O)Nc5nccs5)c5ncn6c5C[C@@H](F)C6)nc4c3Cl)cc2)[C@@H](F)C1 (single isomer, unassigned) [Example 37] gave an IC50 of 10 nM. O=C(Nc1nccs1)C(c1ncn2c1C[C@@H](F)C2)n1cc2c(Cl)cc(-c3ccc(N4CCOCC4)cc3)c(C(F)F)c2n1 (mixture of isomers) [Example 106, rac-2-(4-Chloro-7-(difluoromethyl)-6-(4-morpholinophenyl)-2H-indazol-2-yl)-2-((R)-6-fluoro-6,7-dihydro-5H-pyrrolo[1,2-c]imidazol-1-yl)-N-(thiazol-2-yl)acetamide] showed an IC50 of 8 nM. CCc1cc(-c2cc(Cl)c3cn(C(C(=O)Nc4nccs4)c4ncn5c4C[C@@H](F)C5)nc3c2Cl)ccc1OCCN(C)C (stereo partly drawn) [Example 40, 2-(4,7-Dichloro-6-(4-(2-(dimethylamino)ethoxy)-3-ethylphenyl)-2H-indazol-2-yl)-2-((R)-6-fluoro-6,7-dihydro-5H-pyrrolo[1,2-c]imidazol-1-yl)-N-(thiazol-2-yl)acetamide] was tested, and the IC50 was 8 nM. Compound CN(C)Cc1ccc(-c2cc(Cl)c3cn(C(C(=O)Nc4nccs4)c4ncn5c4C[C@@H](F)C5)nc3c2Cl)cc1F (mixture of isomers) [Example 49, rac-2-(4,7-Dichloro-6-(4-((dimethylamino)methyl)-3-fluorophenyl)-2H-indazol-2-yl)-2-((R)-6-fluoro-6,7-dihydro-5H-pyrrolo[1,2-c]imidazol-1-yl)-N-(thiazol-2-yl)acetamide] has an IC50 of 8 nM. Compound CN(C)CCN(C)c1ccc(-c2cc(Cl)c3cn(C(C(=O)Nc4nccs4)c4ncn5c4C[C@@H](F)C5)nc3c2Cl)cc1 (mixture of isomers) [Example 41, rac-2-(4,7-Dichloro-6-(4-((2-(dimethylamino)ethyl)(methyl)amino)phenyl)-2H-indazol-2-yl)-2-((R)-6-fluoro-6,7-dihydro-5H-pyrrolo[1,2-c]imidazol-1-yl)-N-(thiazol-2-yl)acetamide] has an IC50 of 10 nM. For O=C(Nc1nccs1)C(c1ncn2c1C[C@@H](F)C2)n1cc2c(Cl)cc(-c3ccc(N4CCOCC4)nc3)c(Cl)c2n1 (mixture of isomers) [Example 29, 2-[4,7-Dichloro-6-(6-morpholin-4-ylpyridin-3-yl)indazol-2-yl]-2-[rac-(6R)-6-fluoro-6,7-dihydro-5H-pyrrolo[1,2-c]imidazol-1-yl]-N-(1,3-thiazol-2-yl)acetamide], the IC50 was 6 nM. Compound O=C(Nc1nccs1)C(c1ncn2c1C[C@@H](F)C2)n1cc2c(Cl)cc(-c3ccc(N4CCN(C5CC(O)C5)CC4)cc3)c(Cl)c2n1 (mixture of isomers) [Example 66, rac-2-(4,7-Dichloro-6-(4-(4-(3-hydroxycyclobutyl)piperazin-1-yl)phenyl)-2H-indazol-2-yl)-2-((R)-6-fluoro-6,7-dihydro-5H-pyrrolo[1,2-c]imidazol-1-yl)-N-(thiazol-2-yl)acetamide] has an IC50 of 2 nM. CCN1CC[C@H](c2ccc(-c3cc(Cl)c4cn(C(C(=O)Nc5nccs5)c5ncn6c5C[C@@H](F)C6)nc4c3Cl)cc2)[C@@H](F)C1 (mixture of isomers) [Example 32, 2-(4,7-Dichloro-6-(4-(rac-(3R,4R)-1-ethyl-3-fluoropiperidin-4-yl)phenyl)-2H-indazol-2-yl)-2-((R)-6-fluoro-6,7-dihydro-5H-pyrrolo[1,2-c]imidazol-1-yl)-N-(thiazol-2-yl)acetamide] was tested, and the IC50 was 4 nM. O=C(Nc1nccs1)C(c1ncn2c1C[C@@H](F)C2)n1cc2c(Cl)cc(-c3ccc(CN4CC5(COC5)C4)cc3)c(Cl)c2n1 (mixture of isomers) [Example 63, rac-2-(6-(4-((2-Oxa-6-azaspiro[3.3]heptan-6-yl)methyl)phenyl)-4,7-dichloro-2H-indazol-2-yl)-2-((R)-6-fluoro-6,7-dihydro-5H-pyrrolo[1,2-c]imidazol-1-yl)-N-(thiazol-2-yl)acetamide] gave an IC50 of 5 nM.
